{"source": "paper PMC12540682", "about": "“Purification and biochemical characterization of L-glutaminase from Aspergillus oryzae with potential biotechnological applications in synthesis of L-theanine and as antitumor agent” (Scientific Reports, 2025)", "key": {"[1]": {"tested_on": "T1, L-glutaminase (Glut) from Aspergillus oryzae EG-RE9", "T1 construct": "gene gtaA; native extracellular enzyme purified from culture filtrate (ammonium sulfate, DEAE-cellulose, Sephadex G-200); 65 kDa by SDS-PAGE", "assay": "ammonia release (Nessler), Lineweaver-Burk", "type": "biochemical", "details": "pH 7.0, 35 °C, 1 h; L-glutamine 0.25-12 mM"}, "[2]": {"target": "T1, L-glutaminase (Glut) from Aspergillus oryzae EG-RE9", "assay": "residual activity after preincubation, ammonia release (Nessler)", "type": "biochemical", "details": "0.1 M phosphate pH 7.0, 20 min preincubation at 37 °C, covalent", "procedure": "residual activity after preincubation, ammonia release (Nessler) on L-glutaminase (Glut) from Aspergillus oryzae EG-RE9 | The IC50 of BD, NBS, DEPC, and NEM for A. oryzae L-glutaminase were […]"}}, "note": "pIC50: −log10 of the molar value.", "data": [{"smiles": "NC(=O)CC[C@H](N)C(=O)O", "note": "[L-glutamine]", "values": [{"measurement": "Km", "setting": "[1]", "value": 1.4, "unit": "mM"}]}, {"smiles": "O=C1CCC(=O)N1Br", "note": "[N-bromosuccinimide]", "values": [{"measurement": "pIC50", "setting": "[2]; group-specific modifier of Trp", "value": 2.24}]}, {"smiles": "CCN1C(=O)C=CC1=O", "note": "[N-ethylmaleimide]", "values": [{"measurement": "pIC50", "setting": "[2]; group-specific modifier of Cys", "value": 2.32}]}, {"smiles": "CC(=O)C(C)=O", "note": "[butanedione]", "values": [{"measurement": "pIC50", "setting": "[2]; group-specific modifier of Arg", "value": 2.18}]}, {"smiles": "CCOC(=O)OC(=O)OCC", "note": "[diethyl pyrocarbonate]", "values": [{"measurement": "pIC50", "setting": "[2]; group-specific modifier of His", "value": 2.15}]}]}
